# “And” between values parts separate entries of the source, which are not always exact repeats. Identical values can stand only once.
# How the values were obtained:
# [1] = test system: pentylenetetrazole (PTZ)-induced convulsions; assay: Antagonism to pentylenetetrazole (PTZ) convulsions; format: in vivo; conditions: for ED50 (by PTZ antagonism): mice, i.p. 45 min before PTZ 90 mg/kg s.c., confidence limits in brackets, p = 0.05; for TI: therapeutic index TI = LD50/ED50
# Method: (§1) The study of the anticonvulsant activity of hybrids 7a–u was assessed by evaluating the antagonism to pentylenetetrazole (PTZ), thiosemicarbazide convulsive seizures, and maximal electroshock-induced seizures (MES). The PTZ-induced test is considered an experimental model for the clonic component of epilepsy seizures and the prognostic anxiolytic activity of the compounds. PTZ is a common convulsive agent used in animal models to investigate the mechanisms of seizures. The model of thiosemicarbazide (TSC) seizures (affecting the exchange of GABA) causes clonic seizures similar to pentylenetetrazole ones. The MES test is used as an animal model for the generalization of tonic seizures in epilepsy. The neurotoxicity and side effects of the compounds (movement coordination disorder, myorelaxation, and ataxia) were also studied on mice with the “rotating rod”[29] test.
# The anticonvulsant effect of the newly synthesized compounds was investigated by tests comprising pentylenetetrazole, thiosemicarbazide convulsions, and maximal electroshock (MES). Outbred mice (weight 18–22 g) were used for the study. […] Each animal is placed into an individual plastic cage for observation lasting 1 h. Seizures and clonic convulsions were recorded. […] The control animals were administered as an emulsifier. Every dose of each test compound was studied in six animals.
# (§2) Adverse neurotoxic (muscle relaxant) effects of compounds were studied at doses of 50 to 500 mg/kg when administered intraperitoneally, as well as reference drugs in effect at anticonvulsant doses. Myorelaxation was investigated with the test of a “rotating rod” in mice. To this end, mice were planted on a metal rod with a corrugated rubber coating, which rotated at a speed of 5 revolutions per minute. The number of animals that cnot stay on it for 2 min was determined. To determine the ED50, neurotoxic TD50, and LD50, the statistical method of penetration by Litchfield and Wilcoxon was used.
# mouse = assay: Elevated plus maze (EPM) test; format: in vivo; conditions: 50 mg/kg i.p., 5 min; for Number of Entries into the Closed Arms: control 9.4 ± 1.6; for Time Spent in the Center: control 28.2 ± 3.12; for Time Spent in Closed Arms: control 269.2 ± 10.4
# Description: Elevated plus maze—EPM test. Anti-anxiety and sedative effects were studied on mouse a model of the “elevated plus maze”. The labyrinth is a cruciform machine raised above the floor, with a pair of open and closed sleeves opposed to each other. Normal animals prefer to spend most of their time in the closed (dark) sleeves of the labyrinth. The anxiolytic effect of the compounds was estimated by the increase in the number of entries into open (light) sleeves and the time spent in them without increasing the total motor activity. This records the time spent in the closed sleeve and the number of attempts to enter the installation center. In the above model, the test compounds and the reference drug were injected intraperitoneally before the experiments. The control animals were administered as an emulsifier. Results were processed statistically (p < 0.05).
# mice [2] = assay: Rotating rod test (neurotoxicity, myorelaxation); format: in vivo; conditions: i.p., myorelaxation in 50% of animals
# Method: as §1, §2
# rats [3] = assay: Open field test; format: in vivo; conditions: 50 mg/kg i.p.; for Cells Examination, amount (absolute data during 5 min): control 2.4 ± 0.67; for Vertical Displacement, amount (absolute data during 5 min): control 7.0 ± 2.14; for Horizontal Displacement, amount (absolute data during 5 min): control 21.6 ± 2.25
# Method: Open field test. The research-motor behavior of rats was studied on a modified “open field” model. For this purpose, an installation was used, the bottom of which is divided into squares with holes (cells). Experiments were performed in the daytime with natural light. Within 5 min of the experiment, the indicators of sedative and activating behavior were determined, namely the number of horizontal movements, standing on the hind legs (vertical movements), and sniffing of the cells. The number of animals on this model was eight for each compound, control, and reference drug.
# mice [4] = assay: in vivo; conditions: dead animals after 24 h
# Method: as §2
# mice [5] = assay: Forced swimming test; conditions: 50 mg/kg, 6 min; for Total Time of Immobilization: control 42.0 ± 7.24; for Total Time of Active Swimming: control 318.0 ± 8.36;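 as to all read-outs here: mice made to swim in a water-filled glass vessel under natural light, with durations of active swimming and immobility recorded across the 6 min session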
# Method: Forced swimming test. To assess “despair and depression”, the “compelling swimming” model was used. Experimental animals were forced to swim in a glass container (height 22 cm, diameter 14 cm), filled 1/3 with water. […] The latent period of immobilization, the total duration of active swimming and immobilization are fixed at 6 min (the experiments were conducted under natural light).
# rats [6] = assay: Electroshock retrograde amnesia, conditioned response of passive avoidance (CRPA); format: in vivo; conditions: 50 mg/kg, study for 5 min; for The Time Spent in the Light Chamber during the Training of the CRPA, First Day: control 280.0 ± 7.5; for The Time Spent in the Light Chamber When Playing CRPA + MESH after 24 h, Second Day: control 281.0 ± 6.1
# Method: Test for learning and memory. The antiamnesic properties of the compounds were studied using an electroshock amnesia model modified by J. Bures, O. Buresova. In rats, a conditioned passive avoidance reaction (CRPA) to a dark-light setting was developed, while the training of the animals with CRPA was recorded. The residence times in the light and dark compartments were recorded for 5 min (300 s). Then, in the dark compartment, the animal received a single current shock (0.4 mA) through the electrode floor (training). To obtain amnesia, a maximum electroconvulsive seizure is induced in animals (conducting a maximum electric current of 50 Hz for 0.2 s through corneal electrodes). Conducting an electric shock immediately after training causes the erasure of the memory trace. The test for reproduction is carried out 24 h after training—after the development of CRPA. During this period, the control animals forget the training and prefer to be in the dark part of the chamber. An increase in the time spent by rats in the light compartment compared to the control on the second day indicates the presence of antiamnestic properties of the compounds.
# [7] = test system: thiosemicarbazide (TSC)-induced convulsions; assay: Thiosemicarbazide (TSC) seizures; format: in vivo, mice; conditions: mice; for Latency of Convulsions, Induced by TSC, M ± M: compound 100 mg/kg i.p. 45 min before TSC 18 mg/kg s.c.; for Latency of Convulsions, Induced by TSC, I (index of latent period of TSC seizures): compound 100 mg/kg i.p., relative to control = 1.0
# Method: as §1
# Thiosemicarbazide, an antimetabolite of GABA inhibitor (glutamic acid decarboxylase) in the brain, is administered subcutaneously to mice at a dose of 18 mg/kg as a 0.5% solution, which causes clonic convulsions in animals. Anti-thiosemicarbazide activity was evaluated based on the latency time of the onset of seizures. Compounds were administered intraperitoneally at doses of 100 mg/kg in suspension with carboxymethylcellulose and Tween-80 45 min before administration of thiosemicarbazide.
Molecule,ED50 (by PTZ antagonism) [1],TI [1],"Time Spent in the Open Arms (mouse; control 2.6 ± 1.6, 50 mg/kg)",Number of Entries into the Closed Arms (mouse),Time Spent in the Center (mouse),Time Spent in Closed Arms (mouse),TD50 (mice [2]),"Cells Examination, amount (absolute data during 5 min) (rats [3])","Vertical Displacement, amount (absolute data during 5 min) (rats [3])","Horizontal Displacement, amount (absolute data during 5 min) (rats [3])",LD50 (mice [4]),Total Time of Immobilization (mice [5]),Total Time of Active Swimming (mice [5]),"The Time Spent in the Light Chamber during the Training of the CRPA, First Day (rats [6])","The Time Spent in the Light Chamber When Playing CRPA + MESH after 24 h, Second Day (rats [6])","Latency of Convulsions, Induced by TSC, M ± M [7]","Latency of Convulsions, Induced by TSC, I (index of latent period of TSC seizures) [7]",Time Spent in the Open Arms (mouse; control 2.6 ± 1.6),melting point
"6-{4-[(4-{[(4-Cyano-1-isopropyl-5,6,7,8-tetrahydroisoquinolin-3-yl)oxy]methyl}-1H-1,2,3-triazol-1-yl)acetyl]piperazin-1-yl}-1,3,3-trimethyl-3,4-dihydro-1H-pyrano [3,4-c]pyridine-5-carbonitrile [7g]",18 (10.6 ÷ 30.6) mg/kg,37.8,6.6 s and 6.6 ± 2.3 s,6.0 ± 1.67,53.4 ± 3.53 s,237.8 ± 12.5 s,>500 mg/kg,10.0 ± 3.56,9.0 ± 2.34,49.0 ± 7.16,680 (571 ÷ 809) mg/kg,3.0 ± 0.6 s,357.0 ± 13.5 s,283.0 ± 5.2 s,297.0 ± 7.2 s,28.4 ± 0.67 min,2.84,,
"6-{4-[(4-{[(4-Cyano-1-isopropyl-5,6,7,8-tetrahydroisoquinolin-3-yl)oxy]methyl}-1H-1,2,3-triazol-1-yl)acetyl]piperazin-1-yl}-3,3-dimethyl-1-propyl-3,4-dihydro-1H-pyrano [3,4-c]pyridine-5-carbonitrile [7i]",,20.4,,2.2 ± 0.61,16.0 ± 5.2 s,242.0 ± 16.46 s,>500 mg/kg,3.4 ± 1.89,15.0 ± 4.28,50.2 ± 5.5,695 (579 ÷ 834) mg/kg,62.0 ± 5.04 s,300.0 ± 19.35 s,286.0 ± 6.3 s,299.0 ± 6.3 s,41.0 ± 1.75 min,4.1,42.0 ± 8.43 s,
"6-{4-[(4-{[(4-Cyano-1-methyl-5,6,7,8-tetrahydroisoquinolin-3-yl)oxy]methyl}-1H-1,2,3-triazol-1-yl)acetyl]piperazin-1-yl}-1,3,3-trimethyl-3,4-dihydro-1H-pyrano [3,4-c]pyridine-5-carbonitrile [7d]",16 (13.1 ÷ 19.5) mg/kg,,,1.36 ± 0.8,15.0 ± 3.62 s,264 ± 8.12 s,>500 mg/kg,6.2 ±0.38,14.4 ± 3.98,38.6 ± 5.18,800 (672 ÷ 952) mg/kg,77.4 ± 7.1 s,300.0 ± 29.2 s,284.0 ± 6.8 s,299.0 ± 7.2 s,41.2 ± 1.61 min,4.12,21.0 ± 3.2 s,
"6-{4-[(4-{[(5-Cyano-3,3,8-trimethyl-3,4-dihydro-1H-pyrano [3,4-c]pyridin-6-yl)oxy]methyl}-1H-1,2,3-triazol-1-yl)acetyl]piperazin-1-yl}-1-ethyl-3,3-dimethyl-3,4-dihydro-1H-pyrano [3,4-c]pyridine-5-carbonitrile [7n]",26 (18.6 ÷ 36.4) mg/kg,31.5,,1.4 ± 1.2,82.0 ± 15.2 s,204.0 ± 14.2 s,>500 mg/kg,3.0 ± 0.89,11.6 ± 2.5,52.2 ± 12.2,820 (689 ÷ 976) mg/kg,42.0 ± 12.04 s,324.0 ± 22.4 s,283.0 ± 7.1 s,297.0 ± 6.8 s,41.2 ± 1.61 min,4.12,12.0 ± 1.4 s,
"CCCc1nc(N2CCN(C(=O)Cn3cc(COc4nc(-c5ccco5)c5c(c4C#N)CCCC5)nn3)CC2)c(C#N)c2c1COC(C)(C)C2 [7l, 6-(4-{[4-({[4-Cyano-1-(2-furyl)-5,6,7,8-tetrahydroisoquinolin-3-yl]oxy}methyl)-1H-1,2,3-triazol-1-yl]acetyl}piperazin-1-yl)-3,3-dimethyl-8-propyl-3,4-dihydro-1H-pyrano [3,4-c]pyridine-5-carbonitrile]",,,,,,,,,,,,,,,,,,,144 to 146 °C
"CCCc1nc(OCc2cn(CC(=O)N3CCN(c4nc(C)c5c(c4C#N)CC(C)(C)OC5)CC3)nn2)c(C#N)c2c1COC(C)(C)C2 [7s, 6-{4-[(4-{[(5-Cyano-3,3-dimethyl-8-propyl-3,4-dihydro-1H-pyrano [3,4-c]pyridin-6-yl)oxy]methyl}-1H-1,2,3-triazol-1-yl)acetyl]piperazin-1-yl}-3,3,8-trimethyl-3,4-dihydro-1H-pyrano [3,4-c]pyridine-5-carbonitrile]",,,,,,,,,,,,,,,,,,,192 to 194 °C
